According to patent publication US12396968B2, “Mitofusin activators having an endocyclic-bonded carbonyl group and methods for use thereof” (priority 2022, dated 2025):
pEC50: −log10 of the molar value.

What was measured:
mitofusin = experiment: Dose-response of mitofusin agonist fusogenicity (mitochondrial aspect ratio) in Mfn1- or Mfn2-deficient MEFs; assay type: cell-based, mouse; details: Mfn1-KO or Mfn2-KO MEFs, compounds overnight, mitochondrial aspect ratio indexed to maximal response of Compound 35
Description: Dose-response of mitofusin agonist fusogenicity was performed in Mfn1- or Mfn2-deficient MEFs (Mfn1-KO or Mfn2-KO MEFs) cultured at 37° C. and 5% CO2-95% air. Cells were seeded on day 1 in 6 well plates at a density of 2×10^4 cells per well and compounds added at 9 concentrations (0.5 nM-10 μM dissolved in DMSO) overnight. Mitochondria were then stained with MitoTracker Orange (200 nM; M7510; Invitrogen, Carlsbad, CA, USA). Nuclei were stained with Hoescht (10 μg/ml; Invitrogen, Thermo Fisher Scientific Cat: #H3570). Images were acquired at room temperature on a Nikon Ti Confocal microscope using a 60×1.3 NA oil-immersion objective in Krebs-Henseleit buffer (138 NaCl, […] pH: 7.2-7.5, and 1 mM CaCl2). Laser excitation was 549 nm with emission at 590 nm for MitoTracker Orange and excitation at 306 nm with emission at 405 nm for Hoescht. Images were analyzed using ImageJ and fusogenicity quantified as mitochondrial aspect ratio (length/width), and were indexed to the maximal response elicited by Compound 35, a known mitofusin activator. Response curves were interpolated using the sigmoidal model using Prism 8 software. EC50 values are reported as mean with 95% confidence limits for at least 3 independent experiments.
(§1) Further testing details for the MFN activity and PAMPA are provided in U.S. Patent Applications 2020/0345668 and 2020/0345669, incorporated herein by reference above.

[1] = Plasma protein binding by equilibrium dialysis, human; assay type: in vitro ADME; details: read-out: Plasma Protein Binding (Bound %) Human (converted)
Description: (§2) In vitro pharmacokinetic analyses were performed in duplicate using standard methods by WuXi AppTec Co. Ltd. (Shanghai, China). Plasma protein binding was measured by equilibrium dialysis; % bound=(1−[free compound in dialysate]/[total compound in retentate])×100. Plasma stability of 2 uM compounds in clarified freeze-thawed plasma was assessed by LC-MS/MS of supernatants after protein precipitation; 120 min data are reported for studies including 0, 10, 30, 60, and 120 min. Liver microsome stability of 1 uM compounds in liver microsomes (0.5 mg/ml) after 0, 5, 10, 20, 30, 60 min. incubation was assessed by LC/MS/MS of reaction extracts.

[2] = Plasma protein binding by equilibrium dialysis, mouse; assay type: in vitro ADME; details: read-out: Plasma Protein Binding (Bound %) Mouse (converted)
Description: as §2

[3] = Liver microsome stability, human; assay type: in vitro ADME; details: human liver microsomes 0.5 mg/ml, 1 uM compound; read-out: Liver Microsomes (t1/2, minutes) Human
Description: as §2

[4] = Liver microsome stability, mouse; assay type: in vitro ADME; details: mouse liver microsomes 0.5 mg/ml, 1 uM compound; read-out: Liver Microsomes (t1/2, minutes) Mouse
Description: as §2

[5] = Passive artificial blood brain barrier membrane permeability assay (PAMPA-BBB); assay type: in vitro ADME; details: 10 μM compound, 1% porcine brain polar lipid extract/dodecane, room temperature
Description: Passive artificial blood brain barrier membrane permeability assay (PAMPA-BBB) were performed using 150 μL of 10 μM compounds (5% DMSO) added to PVDF membranes pre-coated with 5 μL of 1% brain polar lipid extract (Porcine)/dodecane mixture and incubated for 4 h at room temperature with shaking at 300 rpm. Donor and acceptor samples were analyzed by LC-MS/MS.
as §1

## O=C(CCCCCCc1ccccc1)N1CCC(O)CC1 [Formula 7]
mitofusin
  pEC50: 7.52
[1]
  fraction unbound: 0.049
[2]
  fraction unbound: 0.043
[3]
  half-life at 1 uM: 103 min
[4]
  half-life at 1 uM: 52.5 min
[5]
  Papp at 4 h, 10 μM: 145 ×10⁻⁶ cm/s

## O=C(CCCCCCc1ccccc1)N1CCCC(O)C1 (centres unmarked) [Formula 8]
mitofusin
  pEC50: < 5.00
[1]
  fraction unbound: 0.034
[2]
  fraction unbound: 0.041
[3]
  half-life at 1 uM: 60.6 min
[4]
  half-life at 1 uM: 22.5 min
[5]
  Papp at 4 h, 10 μM: 180 ×10⁻⁶ cm/s

## O=C(CCCCCc1ccccc1)N1CCC(O)CC1 [Formula 9]
mitofusin
  pEC50: < 5.00
[1]
  fraction unbound: 0.163
[2]
  fraction unbound: 0.088
[3]
  half-life at 1 uM: > 145 min
[4]
  half-life at 1 uM: 82.4 min
[5]
  Papp at 4 h, 10 μM: 96.1 ×10⁻⁶ cm/s

## O=C(CCCCCCCc1ccccc1)N1CCC(O)CC1 [Formula 10]
mitofusin
  pEC50: 7.92
[1]
  fraction unbound: 0.014
[2]
  fraction unbound: 0.011
[3]
  half-life at 1 uM: 64.5 min
[4]
  half-life at 1 uM: 28 min
[5]
  Papp at 4 h, 10 μM: 143 ×10⁻⁶ cm/s

## O=C(NCCCCCc1ccccc1)C1CCC(O)CC1 (centres unmarked) [Formula 26]
mitofusin
  pEC50: 8.01
[1]
  fraction unbound: 0.107
[2]
  fraction unbound: 0.071
[3]
  half-life at 1 uM: > 145 min
[4]
  half-life at 1 uM: 102 min
[5]
  Papp at 4 h, 10 μM: 30.2 ×10⁻⁶ cm/s

## O=C(NC1CC1CCCCc1ccccc1)C1CCC(O)CC1 (centres unmarked) [Formula 30A]
mitofusin
  pEC50: 8.28
[5]
  Papp at 4 h, 10 μM: 86.8 ×10⁻⁶ cm/s

## O=C(NC1CC(CCCc2ccccc2)C1)C1CCC(O)CC1 (centres unmarked) [Formula 31A]
mitofusin
  pEC50: 8.05
[1]
  fraction unbound: 0.042
[2]
  fraction unbound: 0.029
[3]
  half-life at 1 uM: 110 min
[4]
  half-life at 1 uM: 224 min
[5]
  Papp at 4 h, 10 μM: 95.1 ×10⁻⁶ cm/s

## O=C(N[C@H]1C[C@@H]1OCCc1ccccc1)[C@H]1CC[C@H](O)CC1 [Formula 32A]
mitofusin
  pEC50: 7.98
[1]
  fraction unbound: 0.535
[2]
  fraction unbound: 0.279
[3]
  half-life at 1 uM: > 145 min
[4]
  half-life at 1 uM: > 145 min
[5]
  Papp at 4 h, 10 μM: 5.43 ×10⁻⁶ cm/s

## O=C(NC1CC1OCc1ccccc1)C1CCC(O)CC1 (centres unmarked) [Formula 33A]
mitofusin
  pEC50: 7.97
[1]
  fraction unbound: 0.626
[2]
  fraction unbound: 0.361
[3]
  half-life at 1 uM: > 145 min
[4]
  half-life at 1 uM: > 145 min
[5]
  Papp at 4 h, 10 μM: 2.28 ×10⁻⁶ cm/s

## O=C(NC1CC1OCCCc1ccccc1)C1CCC(O)CC1 (centres unmarked) [Formula 34A]
mitofusin
  pEC50: 7.57
[1]
  fraction unbound: 0.37
[2]
  fraction unbound: 0.221
[3]
  half-life at 1 uM: > 145 min
[4]
  half-life at 1 uM: > 145 min
[5]
  Papp at 4 h, 10 μM: 10.5 ×10⁻⁶ cm/s
